Measured values: PubChem BioAssay (NCI)
Several values for one entry are separate records, joined by “and”; a condition that tells them apart may be missing. Equal values may be shown once.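 Dose response: 5 concentrations. Exposure: 48 h. Format: 96-well plates. Endpoint: linear interpolation; highest concentration if not reached. GI50 marks 50% less growth. The concentration for full growth arrest is given as TGI.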

Tests used:
Experiment in all cases: NCI anticancer screen, dose series, 48 h
786-0 renal = tested on: 786-0 renal
A498 renal = tested on: A498 renal
A549 NSCLC = tested on: A549 NSCLC
ACHN renal = tested on: ACHN renal
BT-549 breast = tested on: BT-549 breast
CAKI-1 renal = tested on: CAKI-1 renal
COLO 205 colon = tested on: COLO 205 colon
DU-145 prostate = tested on: DU-145 prostate
EKVX NSCLC = tested on: EKVX NSCLC
HCC-2998 colon = tested on: HCC-2998 colon
HCT-116 colon = tested on: HCT-116 colon
HCT-15 colon = tested on: HCT-15 colon
HOP-62 NSCLC = tested on: HOP-62 NSCLC
HOP-92 NSCLC = tested on: HOP-92 NSCLC
HS 578T breast = tested on: HS 578T breast
HT29 colon = tested on: HT29 colon
IGROV1 ovarian = tested on: IGROV1 ovarian
KM12 colon = tested on: KM12 colon
LOX IMVI melanoma = tested on: LOX IMVI melanoma
M14 melanoma = tested on: M14 melanoma
MALME-3M melanoma = tested on: MALME-3M melanoma
MCF7 breast = tested on: MCF7 breast
MDA-MB-231 breast = tested on: MDA-MB-231 breast
MDA-MB-435 = tested on: MDA-MB-435
MOLT-4 leukemia = tested on: MOLT-4 leukemia
NCI-H226 lung = tested on: NCI-H226 lung
NCI-H23 lung = tested on: NCI-H23 lung
NCI-H460 lung = tested on: NCI-H460 lung
NCI-H522 lung = tested on: NCI-H522 lung
NCI/ADR-RES ovarian = tested on: NCI/ADR-RES ovarian
OVCAR-3 ovarian = tested on: OVCAR-3 ovarian
OVCAR-4 ovarian = tested on: OVCAR-4 ovarian
OVCAR-5 ovarian = tested on: OVCAR-5 ovarian
OVCAR-8 ovarian = tested on: OVCAR-8 ovarian
PC-3 prostate = tested on: PC-3 prostate
RPMI-8226 leukemia = tested on: RPMI-8226 leukemia
RXF 393 renal = tested on: RXF 393 renal
SF-268 CNS = tested on: SF-268 CNS
SF-295 CNS = tested on: SF-295 CNS
SF-539 CNS = tested on: SF-539 CNS
SK-MEL-2 melanoma = tested on: SK-MEL-2 melanoma
SK-MEL-28 melanoma = tested on: SK-MEL-28 melanoma
SK-MEL-5 melanoma = tested on: SK-MEL-5 melanoma
SK-OV-3 ovarian = tested on: SK-OV-3 ovarian
SN12C renal = tested on: SN12C renal
SNB-19 CNS = tested on: SNB-19 CNS
SNB-75 CNS = tested on: SNB-75 CNS
SW-620 colon = tested on: SW-620 colon
T-47D breast = tested on: T-47D breast
TK-10 renal = tested on: TK-10 renal
U251 CNS = tested on: U251 CNS
UACC-257 melanoma = tested on: UACC-257 melanoma
UACC-62 melanoma = tested on: UACC-62 melanoma
UO-31 renal = tested on: UO-31 renal

## COCCNCCc1cccc(Nc2ncc3c(n2)-c2ccccc2C(c2ccccc2F)C3)c1 (stereo not drawn)
786-0 renal
  GI50: 1430 nM and 1760 nM
  TGI: 2910 nM and 3300 nM
A498 renal
  GI50: 345 nM and 1610 nM
  TGI: 1750 nM and 3140 nM
A549 NSCLC
  GI50: 1780 nM and 1880 nM
  TGI: 3330 nM and 3510 nM
ACHN renal
  GI50: 1030 nM and 1050 nM
  TGI: 2200 nM and 2230 nM
BT-549 breast
  GI50: 1550 nM and 7790 nM
  TGI: 2950 nM and 25600 nM
CAKI-1 renal
  GI50: 1270 nM and 1260 nM
  TGI: 2540 nM
COLO 205 colon
  GI50: 1880 nM and 1920 nM
  TGI: 3670 nM and 3630 nM
DU-145 prostate
  GI50: 1530 nM and 1620 nM
  TGI: 2980 nM and 3040 nM
EKVX NSCLC
  GI50: 1630 nM and 1920 nM
  TGI: 3130 nM and 3510 nM
HCC-2998 colon
  GI50: 1770 nM and 2080 nM
  TGI: 3280 nM and 3650 nM
HCT-116 colon
  GI50: 1210 nM and 1660 nM
  TGI: 2600 nM and 3120 nM
HCT-15 colon
  GI50: 1190 nM and 1260 nM
  TGI: 2560 nM and 2600 nM
HOP-62 NSCLC
  GI50: 1600 nM and 1710 nM
  TGI: 3110 nM and 3300 nM
HOP-92 NSCLC
  GI50: 1020 nM and 1240 nM
  TGI: 2270 nM and 2650 nM
HS 578T breast
  GI50: 1150 nM and 1270 nM
  TGI: 3460 nM and 3790 nM
HT29 colon
  GI50: 1120 nM and 1310 nM
  TGI: 2360 nM and 2680 nM
IGROV1 ovarian
  GI50: 1000 nM and 1210 nM
  TGI: 2380 nM and 2750 nM
KM12 colon
  GI50: 1770 nM and 1790 nM
  TGI: 3430 nM and 3370 nM
LOX IMVI melanoma
  GI50: 1250 nM and 1230 nM
  TGI: 2560 nM and 2500 nM
M14 melanoma
  GI50: 1560 nM and 1940 nM
  TGI: 3060 nM and 3780 nM
MALME-3M melanoma
  GI50: 1770 nM and 1870 nM
  TGI: 3410 nM and 3540 nM
MCF7 breast
  GI50: 1580 nM and 1780 nM
  TGI: 3400 nM and 3690 nM
MDA-MB-231 breast
  GI50: 1670 nM and 1450 nM
  TGI: 3110 nM and 2840 nM
MDA-MB-435
  GI50: 1750 nM and 1820 nM
  TGI: 3250 nM and 3320 nM
MOLT-4 leukemia
  GI50: 1180 nM
  TGI: 4150 nM
NCI-H226 lung
  GI50: 1310 nM and 1800 nM
  TGI: 2940 nM and 3670 nM
NCI-H23 lung
  GI50: 1650 nM and 1750 nM
  TGI: 3100 nM and 3320 nM
NCI-H460 lung
  GI50: 1330 nM and 1700 nM
  TGI: 3080 nM and 3470 nM
NCI-H522 lung
  GI50: 1530 nM and 1520 nM
  TGI: 2950 nM
NCI/ADR-RES ovarian
  GI50: 1790 nM and 1760 nM
  TGI: 3430 nM and 3450 nM
OVCAR-3 ovarian
  GI50: 1760 nM and 1600 nM
  TGI: 3480 nM and 3100 nM
OVCAR-4 ovarian
  GI50: 1340 nM and 1720 nM
  TGI: 2740 nM and 3180 nM
OVCAR-5 ovarian
  GI50: 1420 nM and 1570 nM
  TGI: 2760 nM and 3020 nM
OVCAR-8 ovarian
  GI50: 1790 nM and 1870 nM
  TGI: 3380 nM and 3900 nM
PC-3 prostate
  GI50: 1490 nM and 1390 nM
  TGI: 2890 nM and 2860 nM
RPMI-8226 leukemia
  GI50: 1520 nM and 1740 nM
  TGI: 3700 nM and 4230 nM
RXF 393 renal
  GI50: 1110 nM and 1240 nM
  TGI: 2390 nM and 2590 nM
SF-268 CNS
  GI50: 1440 nM and 1640 nM
  TGI: 3070 nM and 3190 nM
SF-295 CNS
  GI50: 1720 nM and 1610 nM
  TGI: 3110 nM and 2990 nM
SF-539 CNS
  GI50: 1320 nM and 1500 nM
  TGI: 2620 nM and 2860 nM
SK-MEL-2 melanoma
  GI50: 1710 nM and 1940 nM
  TGI: 3190 nM and 3440 nM
SK-MEL-28 melanoma
  GI50: 1600 nM and 1760 nM
  TGI: 2970 nM and 3180 nM
SK-MEL-5 melanoma
  GI50: 1650 nM
  TGI: 3040 nM and 3030 nM
SK-OV-3 ovarian
  GI50: 1710 nM and 2450 nM
  TGI: 3140 nM and 6340 nM
SN12C renal
  GI50: 1320 nM and 1040 nM
  TGI: 2700 nM and 2340 nM
SNB-19 CNS
  GI50: 1750 nM and 1810 nM
  TGI: 3180 nM and 3280 nM
SNB-75 CNS
  GI50: 1170 nM and 727 nM
  TGI: 2480 nM and 2090 nM
SW-620 colon
  GI50: 2400 nM
  TGI: 4630 nM
T-47D breast
  GI50: 1760 nM and 1820 nM
  TGI: 3600 nM and 3920 nM
TK-10 renal
  GI50: 1380 nM and 1600 nM
  TGI: 2740 nM and 2980 nM
U251 CNS
  GI50: 1240 nM and 1820 nM
  TGI: 2570 nM and 3280 nM
UACC-257 melanoma
  GI50: 2010 nM and 2150 nM
  TGI: 3540 nM and 4050 nM
UACC-62 melanoma
  GI50: 1720 nM and 1760 nM
  TGI: 3120 nM and 3160 nM
UO-31 renal
  GI50: 685 nM and 1290 nM
  TGI: 2060 nM and 2570 nM
